Tested on: CFTR+/+ and CFTR−/− mice
Experiment: Production of mucus in the airways of mice (alcian blue score), with or without LPS from P. aeruginosa
Type: in vivo, mouse
Conditions: for Average Score (production of mucus in the airways): D4
Procedure: The studies were carried out on a cystic fibrosis model established in C57BL/6J mice (Cftr^tmUNC mice) kept on a mixed gene pool by the “Centre de Distribution, de Typage et d'Archivage Animal” UPS44 CNRS in Orléans. Wild-type CFTR^+/+ and mutant CFTR^−/− mice were weaned at 3-4 weeks and fed with food supplemented with a commercial laxative, Movicol®. Without laxative CFTR^−/− mice die rapidly after weaning due to bowel obstructions resulting from a change in the secretion of fluids in the digestive tract.
The experiments were conducted on groups of at least 5 mice aged 5-7 weeks for each category of treatment.
The products used were dissolved in an injectable saline solution (or physiological saline) and injected by intratracheal (i.t.) or intraperitoneal (i.p.) route.
The use protocol was as follows:
1) Aspirin (50 mg/kg, i.p.), 30 minutes before LPS, then each day, once a day;
2) ATK (20 mg/kg, i.p.), 30 minutes before LPS and 24 hours after.
The mice were anesthetized with 2% xylazine (8 mg/kg) and ketamine 1000 (40 mg/kg) before the infusion of LPS (330 μg/kg, i.t.).
Bronchoalveolar lavages (BALs) and lung samplings were carried out 4 days after the infusion of LPS, as indicated below:
The lungs were infused with 4% formaldehyde to remove the blood and immersed in 4% formaldehyde for 48 hours at 4° C. before being added to paraffin.
Sections 5 μm thick were stained with hemotoxylin/eosin, periodic acid-Schiff (PAS) and alcian blue (AB; pH 2.4) according to standard methods (Histologie Normale et Pathologique. P. GANTER & G. Jolies, Gauthier-Villars).
After microscopic examination of the sections stained with alcian blue, which colours the mucus, the positive bronchi and cells were counted. The “number of positive bronchi/number of positive cells” ratio makes it possible to establish the score which serves to evaluate the results of the mucus production studies (see below).

SMILES: CC(=O)Oc1ccccc1C(=O)O [asp, aspirin]
- Average Score (production of mucus in the airways) (CFTR+/+ mice, LPS 330 μg/kg i.t. + aspirin 50 mg/kg i.p.): 0
- Average Score (production of mucus in the airways) (CFTR+/+ mice, control (physiological saline, no LPS) + aspirin 50 mg/kg i.p.): 0.25
- secretion of mucus (CFTR−/− mice stimulated by infusion with LPS of Pseudomonas aeruginosa): inhibited
- Average Score (production of mucus in the airways) (CFTR−/− mice, LPS 330 μg/kg i.t. + aspirin 50 mg/kg i.p.): 0
- Average Score (production of mucus in the airways) (CFTR−/− mice, control (physiological saline, no LPS) + aspirin 50 mg/kg i.p.): 0.50
